Read-outs that look alike come from different tables or passages of the source.
Columns and labels:
α1β1 Na+/K+-ATPase [1] = target: T1, α1β1 Na+/K+-ATPase (Rattus norvegicus, UniProt P06685); test: Na+,K+-ATPase activity assay on homogenates of Sf-9 cells expressing α1β1 isozyme (32Pi release from ATP); format: biochemical
T1 construct: made in house; host or cells: Sf-9 insect cells, baculovirus
Method: Samples were preincubated with the inhibitor for 10 min. The assay was started by the addition of ATP with 0.2 μCi γ[32P]-ATP (2 mM final concentration). […] Released 32Pi-Pi was converted into phosphomolybdate and extracted with isobutanol. The radioactivity in 150 μl of the organic phase was measured by liquid scintillation counting.

α2β1 Na+/K+-ATPase = target: T2, α2β1 Na+/K+-ATPase (Rattus norvegicus, UniProt P06686); test: Na+,K+-ATPase activity assay on homogenates of Sf-9 cells expressing α2β1 isozyme (32Pi release from ATP); format: biochemical
T2 construct: made in house; host or cells: Sf-9 insect cells, baculovirus

α3β1 Na+/K+-ATPase = target: T3, α3β1 Na+/K+-ATPase (Rattus norvegicus, UniProt P06687); test: Na+,K+-ATPase activity assay on homogenates of Sf-9 cells expressing α3β1 isozyme (32Pi release from ATP); format: biochemical
T3 construct: made in house; host or cells: Sf-9 insect cells, baculovirus

[2] = system: α1β1, α2β1 and α3β1 Na,K-ATPases; test: Na+,K+-ATPase activity assay on Sf-9 homogenates, statements for all isozymes together; format: biochemical
Method: Na^+,K^+-ATPase activity was assayed on homogenates of Sf-9 cells expressing the α1β1, α2β1 and α3β1 isozymes. The initial rate of release of ^32Pi from γ[^32P]-ATP was measured. The ATPase activity of 30-40 μg total protein samples was measured in a final volume of 0.25 ml in a medium containing 120 mM NaCl, 30 mM KCl, 3 mM MgCl2, 0.2 mM EGTA, 30 mM Tris-HCl (pH 7.4)±particular concentrations of a tested agent, e.g., herein compound 2.
Samples were preincubated with the inhibitor for 10 min. The assay was started by the addition of ATP with 0.2 μCi γ[32P]-ATP (2 mM final concentration). Following 30 min incubation at 37° C. the tubes were placed on ice, and the reaction was terminated by the addition of 25 μL of 55% trichloroacetic acid. Released 32Pi-Pi was converted into phosphomolybdate and extracted with isobutanol. The radioactivity in 150 μl of the organic phase was measured by liquid scintillation counting. […] The specific activity was therefore determined as the difference in ATP hydrolysis in the presence and absence of 0.0001 M compound 2.
To determine the effect of compound 2 on the activity of the Na^+/K^+-ATPase and its various isozymes, α1β1, α2β1 and α3β1 sodium pump complexes were produced using the baculovirus expression system and dose-response curves to the compound were performed. […]

[3] = system: four human NSCLC cell lines; format: cell-based; conditions: three days, FIG. 6A
[4] = system: C6 rat glioma, MXT mouse mammary carcinoma and mouse B16F10 melanoma cell lines; test: In vitro anti-tumour effect on three rodent cancer cell lines; format: cell-based; conditions: high doses (10 μM), FIG. 6B
Description: We also made use of three murine cell lines, i.e., three cancer cell lines including the C6 rat glioma, the MXT mouse mammary adenocarcinomas and the mouse B16F10 melanoma models.
Then, we made use of three rodent cancer cell lines, i.e. the C6 rat glioma, the MXT mouse […] mammary carcinoma and the mouse B16F10 melanoma models.

α1β1 Na+/K+-ATPase [5] = target: T1, α1β1 Na+/K+-ATPase; conditions: Table 4A, from Blanco et al. 2005; read-out: inhibition constant (Ki) α1β1; cited from earlier work

SMILES: C[C@@H]1CC2(NC(=O)CS2)[C@]2(O)O[C@@H]3C[C@]4(CO)C5CC[C@]6(C)[C@@H](C7=CC(=O)OC7)CC[C@]6(O)[C@@H]5CC[C@H]4C[C@H]3O[C@@H]2O1 (stereo partly shown) [Compound 2]
- Ki (α1β1 Na+/K+-ATPase [1]; Sf-9 expressed α1β1, Table 4A, read-out: inhibition constant (Ki) α1β1): 160 ± 70 nM
- potency of α1β1 inhibition relative to ouabain (α1β1 Na+/K+-ATPase [1]; ratio of Ki versus ouabain): approximately 100 times
- Ki (α2β1 Na+/K+-ATPase): 15 ± 8 nM
- Ki (α3β1 Na+/K+-ATPase): 3.2 ± 3.4 nM
- ATPase activity at 0.0001 M compound versus 0.001 M ouabain ([2]; 0.0001 M compound 2): comparable to that obtained with 0.001 M ouabain
- effect on Na,K-ATPase isozymes ([2]; all α1β1, α2β1 and α3β1): inhibitory effect
- impairment of global growth (rank among four cardenolides) [3]: strongest
- anti-tumor effects in rodent cancer cell lines [4]: displays actual anti-tumor effects

SMILES: C[C@H]1O[C@@H](O[C@H]2[C@@H](O)C[C@H](O[C@H]3[C@@H](O)C[C@H](O[C@H]4CC[C@@]5(C)[C@H](CC[C@@H]6[C@@H]5C[C@@H](O)[C@]5(C)[C@@H](C7=CC(=O)OC7)CC[C@]65O)C4)O[C@@H]3C)O[C@@H]2C)C[C@H](O)[C@@H]1O [Digoxin, reference compound]
- Ki (α1β1 Na+/K+-ATPase [1]): 930 ± 410 nM
- impairment of global growth (rank among four cardenolides) [3]: weakest

SMILES: C[C@@H]1O[C@@H](O[C@H]2C[C@@H](O)[C@]3(CO)[C@H]4[C@H](O)C[C@]5(C)[C@@H](C6=CC(=O)OC6)CC[C@]5(O)[C@@H]4CC[C@]3(O)C2)[C@H](O)[C@H](O)[C@H]1O [Ouabain]
- impairment of global growth (rank among four cardenolides) [3]: digoxin<digitoxin<ouabain<Compound 2
- Ki (α1β1 Na+/K+-ATPase [5]): 43000 ± 19000 nM

SMILES: C[C@H]1O[C@@H](O[C@H]2[C@@H](O)C[C@H](O[C@H]3[C@@H](O)C[C@H](O[C@H]4CC[C@@]5(C)[C@H](CC[C@@H]6[C@@H]5CC[C@]5(C)[C@@H](C7=CC(=O)OC7)CC[C@]65O)C4)O[C@@H]3C)O[C@@H]2C)C[C@H](O)[C@@H]1O [digitoxin]
- impairment of global growth (rank among four cardenolides) [3]: digoxin<digitoxin<ouabain<Compound 2

— patent US20100068198A1, “TARGETING OF ALPHA-1 OR ALPHA-3 SUBUNIT OF NA+, K+-ATPASE IN THE TREATMENT OF PROLIFERATIVE DISEASES” (priority 2006, published 2010)
